From the NIST ThermoML archive (doi:10.1016/j.jct.2017.08.025)
Several values for one entry are separate records, joined by “and”; a condition that tells them apart may be missing. Equal entries are not always repeated. Numbers after ± are expanded uncertainties.

Test: mn = molality of the nth substance listed, in mol/kg
Conditions: 100 kPa, Liquid; for speed of sound: Frequency=3 MHz, Single path-length method; for mass density: Vibrating tube method

CCCCn1cc[n+](C)c1.F[B-](F)(F)F [1-butyl-3-methylimidazolium tetrafluoroborate] + O
speed of sound (288.15 K, m1 = 0.005): 1464.7 ± 4 m/s | speed of sound (288.15 K, m1 = 0.01): 1465.1 ± 4 m/s | speed of sound (288.15 K, m1 = 0.03): 1467 ± 4 m/s | speed of sound (288.15 K, m1 = 0.05): 1468.8 ± 4 m/s | mass density (288.15 K, m1 = 0.005): 999.42 ± 2 kg/m3 | mass density (288.15 K, m1 = 0.01): 999.705 ± 2 kg/m3 | mass density (288.15 K, m1 = 0.03): 1000.86 ± 2 kg/m3 | mass density (288.15 K, m1 = 0.05): 1002 ± 2 kg/m3 | speed of sound (293.15 K, m1 = 0.005): 1482.6 ± 4 m/s | speed of sound (293.15 K, m1 = 0.01): 1483.1 ± 4 m/s | speed of sound (293.15 K, m1 = 0.03): 1484.9 ± 4 m/s | speed of sound (293.15 K, m1 = 0.05): 1486.7 ± 4 m/s | mass density (293.15 K, m1 = 0.005): 998.517 ± 2 kg/m3 | mass density (293.15 K, m1 = 0.01): 998.831 ± 2 kg/m3 | mass density (293.15 K, m1 = 0.03): 999.967 ± 2 kg/m3 and 999.97 ± 2 kg/m3 | mass density (293.15 K, m1 = 0.05): 1001 ± 2 kg/m3 | speed of sound (298.15 K, m1 = 0.005): 1497.5 ± 4 m/s | speed of sound (298.15 K, m1 = 0.01): 1497.9 ± 4 m/s | speed of sound (298.15 K, m1 = 0.03): 1499.8 ± 4 m/s | speed of sound (298.15 K, m1 = 0.05): 1501.6 ± 4 m/s | mass density (298.15 K, m1 = 0.005): 997.393 ± 2 kg/m3 | mass density (298.15 K, m1 = 0.01): 997.7 ± 2 kg/m3 and 997.702 ± 2 kg/m3 | mass density (298.15 K, m1 = 0.03): 998.803 ± 2 kg/m3 | mass density (298.15 K, m1 = 0.05): 999.906 ± 2 kg/m3 and 999.91 ± 2 kg/m3 | speed of sound (303.15 K, m1 = 0.005): 1512.3 ± 4 m/s | speed of sound (303.15 K, m1 = 0.01): 1512.8 ± 4 m/s | speed of sound (303.15 K, m1 = 0.03): 1514.6 ± 4 m/s | speed of sound (303.15 K, m1 = 0.05): 1516.4 ± 4 m/s | mass density (303.15 K, m1 = 0.005): 995.982 ± 2 kg/m3 | mass density (303.15 K, m1 = 0.01): 996.31 ± 2 kg/m3 and 996.311 ± 2 kg/m3 | mass density (303.15 K, m1 = 0.03): 997.512 ± 2 kg/m3 and 997.51 ± 2 kg/m3 | mass density (303.15 K, m1 = 0.05): 998.675 ± 2 kg/m3 and 998.68 ± 2 kg/m3 | speed of sound (308.15 K, m1 = 0.005): 1519.6 ± 4 m/s | speed of sound (308.15 K, m1 = 0.01): 1520.6 ± 4 m/s | speed of sound (308.15 K, m1 = 0.03): 1522.4 ± 4 m/s | speed of sound (308.15 K, m1 = 0.05): 1524.2 ± 4 m/s | mass density (308.15 K, m1 = 0.005): 994.365 ± 2 kg/m3 | mass density (308.15 K, m1 = 0.01): 994.694 ± 2 kg/m3 | mass density (308.15 K, m1 = 0.03): 995.895 ± 2 kg/m3 | mass density (308.15 K, m1 = 0.05): 996.998 ± 2 kg/m3 and 997 ± 2 kg/m3
